ChEMBL document CHEMBL3714753, “Substituted tetrahydroquinolines, phenylacetic acids and benzoic acids as hepatocyte nuclear factor 4 (hnf-4 ) modulator compounds” (2005)

What was measured:
[1] = biological target: T1, Hepatocyte nuclear factor 4-alpha (Rattus norvegicus, UniProt P22449); assay: Agonist activity at rat HNF4alpha1 expressed in African green monkey CV1 cells incubated for 24 hrs by firefly luciferase reporter gene assay; type: functional, cell-based, CV-1
T1 sequence (P22449 whole entry): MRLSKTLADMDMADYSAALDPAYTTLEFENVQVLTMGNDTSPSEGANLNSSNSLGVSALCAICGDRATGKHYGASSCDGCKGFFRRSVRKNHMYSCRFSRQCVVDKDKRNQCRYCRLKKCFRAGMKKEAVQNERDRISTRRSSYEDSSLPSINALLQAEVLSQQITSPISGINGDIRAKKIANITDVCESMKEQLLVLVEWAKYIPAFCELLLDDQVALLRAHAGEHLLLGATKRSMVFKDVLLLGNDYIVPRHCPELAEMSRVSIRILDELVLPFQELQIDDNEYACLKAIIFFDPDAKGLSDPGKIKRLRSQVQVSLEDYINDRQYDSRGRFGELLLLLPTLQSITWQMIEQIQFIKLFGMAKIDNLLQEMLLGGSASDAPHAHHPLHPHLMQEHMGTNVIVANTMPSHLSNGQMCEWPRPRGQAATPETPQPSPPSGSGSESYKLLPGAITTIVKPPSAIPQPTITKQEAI

[2] = biological target: T2, Hepatocyte nuclear factor 4-alpha (Homo sapiens, UniProt P41235); assay: Displacement of radiolabeled methyl-4-[5,6,7,8-tetrahydro-5,5,8,8-tetramethyl-3-ethyloxy-2-naphthalenyl]benzoyl benzoate from HNF4alpha (unknown origin)
T2 sequence (P41235 whole entry): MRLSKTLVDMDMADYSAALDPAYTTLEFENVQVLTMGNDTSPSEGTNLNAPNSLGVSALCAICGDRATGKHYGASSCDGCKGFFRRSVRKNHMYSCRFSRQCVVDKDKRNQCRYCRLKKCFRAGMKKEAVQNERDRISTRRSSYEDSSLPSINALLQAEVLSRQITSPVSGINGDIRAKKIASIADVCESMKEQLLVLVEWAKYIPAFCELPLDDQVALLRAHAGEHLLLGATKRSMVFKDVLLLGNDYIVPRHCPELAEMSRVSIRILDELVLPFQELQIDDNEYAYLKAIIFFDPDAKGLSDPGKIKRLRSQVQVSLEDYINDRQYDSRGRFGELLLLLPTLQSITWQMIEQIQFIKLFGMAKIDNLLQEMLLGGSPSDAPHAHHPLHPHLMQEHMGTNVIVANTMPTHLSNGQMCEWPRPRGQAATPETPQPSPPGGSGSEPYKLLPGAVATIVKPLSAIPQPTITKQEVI

[3] = biological target: T3, Hepatocyte nuclear factor 4-alpha (Rattus norvegicus) (UniProt P22449); assay: Agonist activity at rat HNF4alpha1 expressed in African green monkey CV1 cells incubated for 24 hrs by firefly luciferase reporter gene assay relative to LGOI00695; type: functional, cell-based; conditions: CV-1
T3 sequence (whole entry): T1 sequence (P22449 whole entry)

[4] = biological target: T1, Hepatocyte nuclear factor 4-alpha; assay: Antagonist activity against rat HNF4alpha1 expressed in African green monkey CV1 cells assessed as inhibition of LGOI00695-induced receptor activation incubated for 24 hrs by firefly luciferase reporter gene assay; type: functional, cell-based, CV-1
[5] = biological target: T3, Hepatocyte nuclear factor 4-alpha (Rattus norvegicus); assay: Antagonist activity against rat HNF4alpha1 expressed in African green monkey CV1 cells assessed as inhibition of LGOI00695-induced receptor activation incubated for 24 hrs by firefly luciferase reporter gene assay relative to control; type: functional, cell-based; conditions: CV-1

Row | EC50 [1] | Ki [2] | Efficacy [3] | IC50 [4] | Efficacy [5] | Compound
1 | 426 nM | 234 nM | 165% | – | – | COC(=O)c1ccc([C@H]2Nc3ccccc3[C@H]3OCCC[C@@H]23)cc1 (relative stereo)
2 | – | 2170 nM | – | 300 nM | 69% | O=C(O)c1ccc(C2Nc3ccc4ccccc4c3[C@H]3OCCC[C@@H]23)cc1 (relative stereo)
3 | 1730 nM | 135 nM | 60% | – | – | Cc1cc2c(cc1C)[C@H]1OCCC[C@H]1[C@@H](c1ccc(C(=O)O)cc1)N2 (relative stereo)
4 | 649 nM | 219 nM | 134% | – | – | O=C(O)Cc1ccc([C@H]2Nc3ccccc3[C@H]3OCCC[C@@H]23)cc1 (relative stereo)
5 | 778 nM | 1080 nM | 42% | – | – | O=C(O)c1ccc(C2Nc3ccc4ccccc4c3[C@H]3OCC[C@@H]23)cc1 (relative stereo)
